Measurements reported in PubChem BioAssay (NCI).
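How tested: cells in 96-well plates exposed to compound for 48 hours at five concentrations. TGI is the concentration that stops growth completely.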

Tests used:
Assay in all cases: DTP human tumour cell line panel, 48 h
DU-145 prostate = system: DU-145 prostate
U251 CNS = system: U251 CNS
TK-10 renal = system: TK-10 renal
EKVX NSCLC = system: EKVX NSCLC
T-47D breast = system: T-47D breast
M14 melanoma = system: M14 melanoma
PC-3 prostate = system: PC-3 prostate
NCI/ADR-RES ovarian = system: NCI/ADR-RES ovarian
HCT-116 colon = system: HCT-116 colon
SR leukemia = system: SR leukemia
HCC-2998 colon = system: HCC-2998 colon
SK-MEL-5 melanoma = system: SK-MEL-5 melanoma
SN12C renal = system: SN12C renal
SNB-75 CNS = system: SNB-75 CNS
MOLT-4 leukemia = system: MOLT-4 leukemia
OVCAR-5 ovarian = system: OVCAR-5 ovarian
HT29 colon = system: HT29 colon
OVCAR-4 ovarian = system: OVCAR-4 ovarian
SNB-19 CNS = system: SNB-19 CNS
MDA-MB-435 = system: MDA-MB-435
CCRF-CEM leukemia = system: CCRF-CEM leukemia
OVCAR-3 ovarian = system: OVCAR-3 ovarian
SF-295 CNS = system: SF-295 CNS
A498 renal = system: A498 renal
SK-MEL-2 melanoma = system: SK-MEL-2 melanoma
UACC-62 melanoma = system: UACC-62 melanoma
KM12 colon = system: KM12 colon
NCI-H23 lung = system: NCI-H23 lung
CAKI-1 renal = system: CAKI-1 renal
MDA-N = system: MDA-N
HCT-15 colon = system: HCT-15 colon
NCI-H522 lung = system: NCI-H522 lung
COLO 205 colon = system: COLO 205 colon
OVCAR-8 ovarian = system: OVCAR-8 ovarian
UO-31 renal = system: UO-31 renal
NCI-H460 lung = system: NCI-H460 lung
MALME-3M melanoma = system: MALME-3M melanoma
K-562 leukemia = system: K-562 leukemia
SF-268 CNS = system: SF-268 CNS
SF-539 CNS = system: SF-539 CNS
LOX IMVI melanoma = system: LOX IMVI melanoma
MCF7 breast = system: MCF7 breast
ACHN renal = system: ACHN renal
NCI-H226 lung = system: NCI-H226 lung
RXF 393 renal = system: RXF 393 renal
HOP-62 NSCLC = system: HOP-62 NSCLC
HS 578T breast = system: HS 578T breast
SK-OV-3 ovarian = system: SK-OV-3 ovarian
HOP-92 NSCLC = system: HOP-92 NSCLC
HL-60(TB) leukemia = system: HL-60(TB) leukemia
SK-MEL-28 melanoma = system: SK-MEL-28 melanoma
UACC-257 melanoma = system: UACC-257 melanoma
RPMI-8226 leukemia = system: RPMI-8226 leukemia
A549 NSCLC = system: A549 NSCLC
MDA-MB-231 breast = system: MDA-MB-231 breast
786-0 renal = system: 786-0 renal
SW-620 colon = system: SW-620 colon
IGROV1 ovarian = system: IGROV1 ovarian

With `Cc1nc2nn[nH]n2c(=O)c1CCO` the TGI (DU-145 prostate) was > 100 µM, the TGI (U251 CNS) was > 100 µM and the TGI (TK-10 renal) was > 100 µM. For the same compound, the TGI (EKVX NSCLC) was > 100 µM, the TGI (T-47D breast) was > 100 µM and the TGI (M14 melanoma) was > 100 µM. The TGI (PC-3 prostate) was > 100 µM, the TGI (NCI/ADR-RES ovarian) was > 100 µM and the TGI (HCT-116 colon) was > 100 µM. For the same compound, the TGI (SR leukemia) was > 100 µM, the TGI (HCC-2998 colon) was > 100 µM and the TGI (SK-MEL-5 melanoma) was > 100 µM. For the same compound, the TGI (SN12C renal) was > 100 µM, the TGI (SNB-75 CNS) was 85.7 µM and the TGI (MOLT-4 leukemia) was > 100 µM. For the same compound, the TGI (OVCAR-5 ovarian) was > 100 µM, the TGI (HT29 colon) was > 100 µM and the TGI (OVCAR-4 ovarian) was > 100 µM. For the same compound, the TGI (SNB-19 CNS) was > 100 µM, the TGI (MDA-MB-435) was > 100 µM and the TGI (CCRF-CEM leukemia) was > 100 µM. The TGI (OVCAR-3 ovarian) was > 100 µM, the TGI (SF-295 CNS) was > 100 µM and the TGI (A498 renal) was > 100 µM. For the same compound, the TGI (SK-MEL-2 melanoma) was > 100 µM, the TGI (UACC-62 melanoma) was > 100 µM and the TGI (KM12 colon) was > 100 µM. For the same compound, the TGI (NCI-H23 lung) was > 100 µM, the TGI (CAKI-1 renal) was > 100 µM and the TGI (MDA-N) was > 100 µM. For the same compound, the TGI (HCT-15 colon) was > 100 µM, the TGI (NCI-H522 lung) was > 100 µM and the TGI (COLO 205 colon) was > 100 µM. The TGI (OVCAR-8 ovarian) was > 100 µM, the TGI (UO-31 renal) was > 100 µM and the TGI (NCI-H460 lung) was > 100 µM. For the same compound, the TGI (MALME-3M melanoma) was > 100 µM, the TGI (K-562 leukemia) was > 100 µM and the TGI (SF-268 CNS) was > 100 µM. For the same compound, the TGI (SF-539 CNS) was > 100 µM, the TGI (LOX IMVI melanoma) was > 100 µM and the TGI (MCF7 breast) was > 100 µM. For the same compound, the TGI (ACHN renal) was > 100 µM, the TGI (NCI-H226 lung) was > 100 µM and the TGI (RXF 393 renal) was > 100 µM. For the same compound, the TGI (HOP-62 NSCLC) was > 100 µM, the TGI (HS 578T breast) was > 100 µM and the TGI (SK-OV-3 ovarian) was > 100 µM. For the same compound, the TGI (HOP-92 NSCLC) was > 100 µM, the TGI (HL-60(TB) leukemia) was > 100 µM and the TGI (SK-MEL-28 melanoma) was > 100 µM. The TGI (UACC-257 melanoma) was > 100 µM, the TGI (RPMI-8226 leukemia) was > 100 µM and the TGI (A549 NSCLC) was > 100 µM. The TGI (MDA-MB-231 breast) was > 100 µM, the TGI (786-0 renal) was > 100 µM and the TGI (SW-620 colon) was > 100 µM. The TGI (IGROV1 ovarian) was > 100 µM.

For `COC1(C)OC[C@@]2(C)OC(C)C1(C)C2O[Si](C(C)C)(C(C)C)C(C)C` (stereo partly specified), the TGI (DU-145 prostate) was > 100 µM, the TGI (U251 CNS) was > 100 µM and the TGI (TK-10 renal) was 80.2 µM. The TGI (EKVX NSCLC) was 70.9 µM, the TGI (T-47D breast) was 71.3 µM and the TGI (M14 melanoma) was > 100 µM. For the same compound, the TGI (PC-3 prostate) was > 100 µM, the TGI (NCI/ADR-RES ovarian) was 60.3 µM and the TGI (HCT-116 colon) was > 100 µM. It also gave a TGI (SR leukemia) of 85.7 µM, a TGI (HCC-2998 colon) of 40.8 µM and a TGI (SK-MEL-5 melanoma) of 52.5 µM. The TGI (SN12C renal) was 58.4 µM, the TGI (SNB-75 CNS) was 69.4 µM and the TGI (MOLT-4 leukemia) was 50.9 µM. For the same compound, the TGI (OVCAR-5 ovarian) was 71.8 µM, the TGI (HT29 colon) was > 100 µM and the TGI (OVCAR-4 ovarian) was > 100 µM. The TGI (SNB-19 CNS) was > 100 µM, the TGI (MDA-MB-435) was > 100 µM and the TGI (CCRF-CEM leukemia) was 54.6 µM. The TGI (OVCAR-3 ovarian) was 50 µM, the TGI (SF-295 CNS) was 47.3 µM and the TGI (A498 renal) was > 100 µM. The TGI (SK-MEL-2 melanoma) was 45.2 µM, the TGI (UACC-62 melanoma) was > 100 µM and the TGI (KM12 colon) was > 100 µM. For the same compound, the TGI (NCI-H23 lung) was 62.5 µM, the TGI (CAKI-1 renal) was 88 µM and the TGI (MDA-N) was > 100 µM. It also gave a TGI (HCT-15 colon) of 48 µM, a TGI (NCI-H522 lung) of 59.1 µM and a TGI (COLO 205 colon) of 32.3 µM. The TGI (OVCAR-8 ovarian) was > 100 µM, the TGI (UO-31 renal) was 96.7 µM and the TGI (NCI-H460 lung) was 62.9 µM. For the same compound, the TGI (MALME-3M melanoma) was 51 µM, the TGI (K-562 leukemia) was 82.3 µM and the TGI (SF-268 CNS) was > 100 µM. The TGI (SF-539 CNS) was > 100 µM, the TGI (LOX IMVI melanoma) was 42.6 µM and the TGI (MCF7 breast) was 32.9 µM. The TGI (ACHN renal) was 62.2 µM, the TGI (NCI-H226 lung) was 45.8 µM and the TGI (RXF 393 renal) was 57 µM. The TGI (HOP-62 NSCLC) was > 100 µM, the TGI (HS 578T breast) was 86.8 µM and the TGI (SK-OV-3 ovarian) was > 100 µM. For the same compound, the TGI (HOP-92 NSCLC) was 63 µM, the TGI (HL-60(TB) leukemia) was 40.4 µM and the TGI (SK-MEL-28 melanoma) was > 100 µM. The TGI (UACC-257 melanoma) was 47.6 µM, the TGI (RPMI-8226 leukemia) was 89.3 µM and the TGI (A549 NSCLC) was > 100 µM. The TGI (MDA-MB-231 breast) was > 100 µM, the TGI (786-0 renal) was > 100 µM and the TGI (SW-620 colon) was > 100 µM. The TGI (IGROV1 ovarian) was 78.5 µM.
